From US20230381122A1, “APPLICATION OF N1-DIHYDROCAFFEOYL-N10-CAFFEOYLSPERMIDINE IN PREPARATION OF DRUG, HEALTH PRODUCT OR FUNCTIONAL FOOD” (NINGXIA MEDICAL UNIVERSITY, priority 2022, published 2023)

Tests used:
[1] = system: PCPA-induced insomnia model of mice; experiment: Number of autonomous activities of mice, PCPA-induced insomnia model; assay type: in vivo; conditions: for Number of autonomous activities, before administration: baseline after PCPA modeling; for Number of autonomous activities, before administration / Number of autonomous activities, after last administration: number in 5 min; for Number of autonomous activities, after last administration: half an hour after administration on the 7th day, PCPA insomnia mice
Procedure: (§1) The pharmacodynamic evaluation of N1-dihydrocaffeoyl-N10-caffeoylspermidine for improving sleep effect was performed in a mouse insomnia model induced by injection of para-chlorophenylalanine (PCPA). The sedative hypnotic effect of N1-dihydrocaffeoyl-N10-caffeoylspermidine in mice with insomnia were evaluated by behavioral evaluation methods, such as recording of the number of autonomous activities, recording of body weight and inducing sleep experiments in mice with pentobarbital sodium. Brain tissues was obtained to determine the levels of neurotransmitters 5-HT, 5-HIAA, GABA and Glu, and to explore the possible mechanism of the sleep improving effect of N1-dihydrocaffeoyl-N10-caffeoylspermidine.
(§2) Healthy SPF grade male ICR mice (18-22 g) were obtained, which were provided by the animal experimental center of Ningxia Medical University (laboratory animal license number SCXK (Ningxia Medical University) 2020-0001). The mice were adaptively housed in a standard SPF grade laboratory with the same animal housing conditions for each group: ambient temperature (25° C.), relative humidity (50%-60%). The mice were free access to food and water.
(§3) After adaptive feeding, for 2 days of continuous modeling, the normal control group was given normal saline (0.1 mL/10 g/d), and the remaining groups received an intraperitoneal injection of PCPA suspension (400 mg/kg/d).
(§4) The mice in each group were administered sequentially from 8:00 am to 12:00 am daily for 7 days.
(1) Number of autonomous activities: after grouping as above, the number of autonomous activities of mice in 5 min was recorded after successful modeling and half an hour after administration on the 7th day, respectively. Mice were acclimatized into the apparatus for 3 min before each recording.

[2] = Body weight of mice, PCPA-induced insomnia model; assay type: in vivo; conditions: for Body weight, after molding: after PCPA modeling, before administration; for Body weight, before molding: baseline before PCPA modeling; for Body weight, 3rd day of administration / Body weight, 7th day of administration: PCPA insomnia mice
Procedure: as §1, §2, §3, §4
(2) Body weight: the body weight of mice in each group was recorded before modeling, after modeling, on the 3rd, 7th day of drug administration, respectively.

[3] = system: PCPA-induced insomnia model of mice; experiment: Righting reflex experiment with pentobarbital sodium: sleep latency and sleep duration; assay type: in vivo; conditions: for Sleep duration / Sleep latency: pentobarbital sodium 50 mg/kg i.p. one hour after administration on the 7th day, PCPA insomnia mice
Procedure: as §1, §2, §3, §4
(3) Righting reflex experiment to determine sleep duration: one hour after administration on the 7th day, mice in each group were intraperitoneally injected with pentobarbital sodium suspension (50 mg/kg), and the sleep latency and sleep duration of mice were recorded. (Sleep latency was recorded from the end of the intraperitoneal injection until the disappearance of the mouse righting reflex for more than 1 min; time from falling asleep to the recovery of the mouse righting reflex was recorded as sleep duration.)

[4] = system: 5-HT; experiment: 5-HT level in brain tissue by ELISA; assay type: in vivo, mice; conditions: for 5-HT: brain tissue, PCPA insomnia mice
Procedure: as §1, §3, §4
(§5) After administration for 7 days, the mice were sacrificed by cervical dislocation, the brains were removed by decapitation on an ice table, ground evenly with a tissue homogenizer, and normal saline was added to make 10% brain tissue homogenate. The homogenate was centrifuged at 3000 r/min for 15 min at 4° C., then supernatants were collected, and levels of neurotransmitters 5-HT, 5-HIAA, Glu, and GABA were determined by ELISA.

[5] = system: 5-HIAA; experiment: 5-HIAA level in brain tissue by ELISA; assay type: in vivo, mice; conditions: for 5-HIAA: brain tissue, PCPA insomnia mice
Procedure: as §1, §3, §4, §5

[6] = system: GABA; experiment: GABA level in brain tissue by ELISA; assay type: in vivo, mice; conditions: for GABA: brain tissue, PCPA insomnia mice
Procedure: as §1, §3, §4, §5

[7] = system: Glu; experiment: Glu level in brain tissue by ELISA; assay type: in vivo; conditions: PCPA insomnia mice
Procedure: as §1, §3, §4, §5

[8] = system: Glu/GABA; experiment: Glu/GABA ratio in brain tissue; assay type: in vivo, mice; conditions: for Glu/GABA: brain tissue, PCPA insomnia mice
Procedure: as §1, §3, §4, §5

[9] = groups at all doses (2, 40, 100 mg/kg/d), p<0.001
[10] = high dose 100 mg/kg/d for 7 days
[11] = medium dose 40 mg/kg/d for 7 days
[12] = groups at all doses (2, 40, 100 mg/kg/d), p<0.05
[13] = 10 mg/kg/d for 7 days, listed as positive drug
[14] = positive drug group (melatonin 10 mg/kg/d)
[15] = 10 mg/kg/d, listed as positive drug
[16] = 10 mg/kg/d for 7 days, 10 mg/kg/day
[17] = 10 mg/kg/d for 7 days, listed as positive drug, 10 mg/kg/day

O=C(/C=C/c1ccc(O)c(O)c1)NCCCNCCCCNC(=O)CCc1ccc(O)c(O)c1 [(E)-3-(3,4-dihydroxyphenyl)-N-(3-((4-(3,4-dihydroxyphenyl)propanamido)butyl)amino) propyl) acrylamide]
Number of autonomous activities, before administration ([1]; high dose group (100 mg/kg/d)): 248 ± 18.38 | Number of autonomous activities, before administration ([1]; low dose group (2 mg/kg/d)): 249 ± 22.30 | Number of autonomous activities, before administration ([1]; medium dose group (40 mg/kg/d)): 246 ± 16.13 | Number of autonomous activities after last administration compared with before administration [1, 9]: significantly decreased | Number of autonomous activities, after last administration [1, 10]: 167 ± 43.35 | Number of autonomous activities, after last administration ([1]; low dose 2 mg/kg/d for 7 days): 172 ± 26.39 | Number of autonomous activities, after last administration [1, 11]: 179 ± 17.43 | Body weight, after molding ([2]; high dose group (100 mg/kg/d)): 26.87 ± 2.71 g | Body weight, after molding ([2]; low dose group (2 mg/kg/d)): 27.08 ± 3.74 g | Body weight, after molding ([2]; medium dose group (40 mg/kg/d)): 27.33 ± 2.13 g | Body weight, before molding ([2]; high dose group (100 mg/kg/d)): 26.18 ± 2.78 g | Body weight, before molding ([2]; low dose group (2 mg/kg/d)): 26.74 ± 2.63 g | Body weight, before molding ([2]; medium dose group (40 mg/kg/d)): 25.95 ± 1.99 g | Body weight on the 3rd day of administration compared with the model group [2, 9]: increased significantly | Body weight, 3rd day of administration ([2]; high dose 100 mg/kg/d): 32.36 ± 2.39 g | Body weight, 3rd day of administration ([2]; low dose 2 mg/kg/d): 32.02 ± 2.63 g | Body weight, 7th day of administration ([2]; low dose 2 mg/kg/d): 31.83 ± 2.77 g | Body weight, 3rd day of administration ([2]; medium dose 40 mg/kg/d): 31.34 ± 1.76 g | Body weight, 7th day of administration ([2]; medium dose 40 mg/kg/d): 32.12 ± 1.44 g | Sleep duration compared with the model group [3, 12]: increased significantly | Sleep duration [3, 10]: 17.5 ± 3.15 min | Sleep duration ([3]; low dose 2 mg/kg/d for 7 days): 16.6 ± 9.53 min | Sleep duration [3, 11]: 19.9 ± 5.72 min | Sleep latency [3, 11]: 298.50 ± 29.08 s | 5-HT [4, 10]: 302.55 ± 17.00 ng/g | 5-HT ([4]; low dose 2 mg/kg/d for 7 days): 271.37 ± 27.58 ng/g | 5-HT [4, 11]: 283.18 ± 9.86 ng/g | 5-HT content in brain tissues compared with the model group [4, 12]: significantly increased | 5-HIAA [5, 10]: 36.61 ± 1.84 ng/g | 5-HIAA ([5]; low dose 2 mg/kg/d for 7 days): 33.79 ± 2.51 ng/g | 5-HIAA [5, 11]: 36.69 ± 2.00 ng/g | 5-HIAA content in brain tissues compared with the model group ([5]; groups at all doses (2, 40, 100 mg/kg/d), p<0.01): significantly increased | GABA [6, 10]: 9.66 ± 1.30 nmol/L | GABA ([6]; low dose 2 mg/kg/d for 7 days): 8.53 ± 1.03 nmol/L | GABA [6, 11]: 9.69 ± 0.98 nmol/L | GABA content in brain tissues compared with the model group ([6]; groups at different doses (2, 40, 100 mg/kg/d), p<0.01): significantly increased | Glu [7, 10]: 63.90 ± 2.88 μmol/gprot | Glu ([7]; low dose 2 mg/kg/d for 7 days): 64.84 ± 4.18 μmol/gprot | Glu/GABA [8, 10]: 7.66 ± 1.03 | Glu/GABA ([8]; low dose 2 mg/kg/d for 7 days): 7.23 ± 1.90 | Glu/GABA [8, 11]: 7.17 ± 1.20 | Glu/GABA values in brain tissues compared with the model group ([8]; groups at different doses (2, 40, 100 mg/kg/d), p<0.05): significantly reduced

COc1ccc2[nH]cc(CCNC(C)=O)c2c1 [Positive drug, melatonin, reference compound]
Number of autonomous activities, after last administration ([1]; 10 mg/kg/d for 7 days): 174 ± 20.81 | Number of autonomous activities, after last administration [1, 13]: significantly decreased | Number of autonomous activities, before administration [1, 14]: 267 ± 15.15 | Body weight, 3rd day of administration ([2]; 10 mg/kg/d): 31.33 ± 4.21 g | Body weight, 7th day of administration ([2]; 10 mg/kg/d): 33.67 ± 3.80 g | Body weight, 3rd day of administration [2, 15]: increased significantly | Body weight, 7th day of administration [2, 15]: increased significantly | Body weight, after molding [2, 14]: 26.26 ± 3.39 g | Body weight, before molding [2, 14]: 26.51 ± 2.23 g | Sleep duration ([3]; 10 mg/kg/d for 7 days): 26.4 ± 6.92 min | Sleep latency ([3]; 10 mg/kg/d for 7 days): 226.00 ± 18.42 s | Sleep duration [3, 13]: increased significantly | Sleep latency [3, 13]: significantly reduced | 5-HIAA [5, 16]: 37.15 ± 1.56 ng/g | 5-HIAA [5, 17]: significantly increased | GABA [6, 16]: 6.89 ± 1.11 nmol/L | GABA [6, 17]: 6.89 ± 1.11 nmol/L | Glu [7, 16]: 53.52 ± 7.23 μmol/gprot | Glu [7, 17]: 53.52±7.23 μmol/gprot | Glu/GABA [8, 16]: 8.51 ± 1.55 | Glu/GABA [8, 17]: significantly reduced
